# Laboratory results reported in paper PMC10107428 (Chemistry (Weinheim an Der Bergstrasse, Germany), 2022).
# Biological target: T1, Galectin-8 (Gal8-6FW) (Homo sapiens, UniProt O00214)
# T1 sequence (O00214 1-317): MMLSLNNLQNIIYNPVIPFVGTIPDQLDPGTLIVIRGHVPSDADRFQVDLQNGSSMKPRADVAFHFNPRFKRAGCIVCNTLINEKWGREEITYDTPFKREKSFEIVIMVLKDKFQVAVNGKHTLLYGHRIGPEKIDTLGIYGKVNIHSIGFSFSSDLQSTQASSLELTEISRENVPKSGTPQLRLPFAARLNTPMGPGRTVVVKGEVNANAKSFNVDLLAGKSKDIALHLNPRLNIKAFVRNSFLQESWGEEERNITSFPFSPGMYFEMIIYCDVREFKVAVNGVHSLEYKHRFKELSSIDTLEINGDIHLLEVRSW
# Assay: […] NMR titration
# Format: binding
smiles,measurement,value
OC[C@H]1O[C@@H](O[C@H]2[C@H](O)[C@@H](O)C(O)O[C@@H]2CO)[C@H](O)[C@@H](O)[C@H]1O (stereo partly shown) [lactose],19F NMR titration,Lactose binds to both domains of Gal8 with very similar and weak affinities
